Results taken from ChEMBL document CHEMBL3085693, “Discovery of a potent inhibitor of replication protein a protein-protein interactions using a fragment-linking approach” (J Med Chem, 2013).

Experiments:
[1] = molecular target: T1, Replication protein A 70 kDa DNA-binding subunit (Homo sapiens, UniProt P27694); assay: Binding affinity to RPA70N (1 to 120) (unknown origin) expressed in Escherichia coli BL21-DE3 cells by NMR spectroscopy
[2] = molecular target: T1, Replication protein A 70 kDa DNA-binding subunit; assay: Binding affinity to RPA70N (1 to 120) (unknown origin) expressed in Escherichia coli BL21-DE3 cells by FPA assay
[3] = molecular target: T1, Replication protein A 70 kDa DNA-binding subunit; assay: Binding affinity to RPA70N (1 to 120) site2 (unknown origin) expressed in Escherichia coli BL21-DE3 cells by NMR spectroscopy
[4] = molecular target: T1, Replication protein A 70 kDa DNA-binding subunit; assay: Binding affinity to RPA70N (1 to 120) site1 (unknown origin) expressed in Escherichia coli BL21-DE3 cells by NMR spectroscopy
[5] = molecular target: T1, Replication protein A 70 kDa DNA-binding subunit; assay: Binding affinity to RPA70NAB (unknown origin) by FPA assay
[6] = molecular target: T1, Replication protein A 70 kDa DNA-binding subunit; assay: Displacement of FITC-ss-DNA from RPA70AB domain (unknown origin) by FPA assay
[7] = molecular target: T1, Replication protein A 70 kDa DNA-binding subunit; assay: Displacement of FITC-ss-DNA from RPA70NAB domain (unknown origin) by FPA assay
[8] = molecular target: T1, Replication protein A 70 kDa DNA-binding subunit; assay: Displacement of FITC-ATRIP2 from RPA70NAB domain (unknown origin) by FPA assay
[9] = molecular target: T1, Replication protein A 70 kDa DNA-binding subunit; assay: Displacement of FITC-ATRIP2 from RPA70N (1 to 120) (unknown origin) by FPA assay

T1 sequence (P27694 whole entry): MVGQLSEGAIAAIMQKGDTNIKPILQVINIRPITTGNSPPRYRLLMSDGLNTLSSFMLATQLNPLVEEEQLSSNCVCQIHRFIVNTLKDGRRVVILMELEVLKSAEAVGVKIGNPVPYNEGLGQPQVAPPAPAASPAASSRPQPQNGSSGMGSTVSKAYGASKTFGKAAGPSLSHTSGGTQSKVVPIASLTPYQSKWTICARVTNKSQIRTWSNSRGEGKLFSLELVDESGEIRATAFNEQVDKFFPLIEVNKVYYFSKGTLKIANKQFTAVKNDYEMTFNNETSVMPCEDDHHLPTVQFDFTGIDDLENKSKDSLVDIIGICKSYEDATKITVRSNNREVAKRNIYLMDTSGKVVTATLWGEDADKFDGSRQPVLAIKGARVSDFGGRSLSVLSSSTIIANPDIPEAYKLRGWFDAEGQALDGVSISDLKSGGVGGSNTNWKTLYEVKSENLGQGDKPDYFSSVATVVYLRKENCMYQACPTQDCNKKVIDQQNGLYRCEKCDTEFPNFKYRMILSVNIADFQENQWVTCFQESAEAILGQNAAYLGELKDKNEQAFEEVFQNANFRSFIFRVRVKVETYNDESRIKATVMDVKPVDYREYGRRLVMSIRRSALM

Cc1cccc(-n2nc(C(=O)O)cc2-c2ccc(OCc3ccc(-c4ccc(C(=O)O)o4)cc3)cc2)c1
Kd [1]: 26 µM | Kd [2]: 20 µM

Cc1cccc(-n2nc(C(=O)O)cc2-c2ccccc2)c1
Kd [3]: > 2000 µM | Kd [4]: 580 µM

Cc1cccc2c(-c3ccccc3)c(C(=O)O)[nH]c12
Kd [4]: 640 µM

O=C(O)c1cc(-c2ccc(CNC(=S)c3ccc(-c4ccc(C(=O)O)o4)cc3Cl)cc2)n(-c2ccc(Cl)c(Cl)c2)n1
Kd [5]: 0.29 µM | Kd [6]: 5.2 µM | Kd [7]: 2.3 µM | Kd [8]: 0.323 µM | Kd [9]: 0.19 µM | Kd [2]: 0.19 µM

CCc1c(O)[nH]c2nc3ccccc3n2c1=O
Kd [3]: 1620 µM

O=C(O)c1cc(-c2ccc(CNC(=O)c3ccc(-c4ccc(C(=O)O)o4)cc3Cl)cc2)n(-c2ccc(Cl)c(Cl)c2)n1
Kd [1]: 2.9 µM

O=C(O)c1cc(-c2ccc(F)cc2)n[nH]1
Kd [3]: 1120 µM

O=C(O)c1ccc(-c2ccc(F)c(Cl)c2)o1
Kd [3]: 1400 µM | Kd [4]: 710 µM
